Test results from the supplement of paper PMC11281043.

Tests used:
[1] = test system: Danio rerio embryo/larva; assay: max % larvae with craniofacial defects across tested concentrations; higher = more toxic; extreme values may be limits of the assay; conditions: exposure: 6-8 hpf to 5 dpf, scored at 6 dpf
[2] = test system: Danio rerio embryo/larva; assay: max % larvae with uninflated swim bladder across tested concentrations; higher = more toxic; extreme values may be limits of the assay; conditions: exposure: 6-8 hpf to 5 dpf, scored at 6 dpf
[3] = test system: Danio rerio embryo/larva; assay: max % larvae with spinal defects across tested concentrations; higher = more toxic; extreme values may be limits of the assay; conditions: exposure: 6-8 hpf to 5 dpf, scored at 6 dpf
[4] = test system: Danio rerio embryo/larva; assay: BMC general abnormality; higher = less potent; conditions: exposure: 6-8 hpf to 5 dpf, scored at 6 dpf
Method: (§1)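 Zebrafish embryos (with chorion) were exposed from 6-8 hpf to each PFAS (8-point half-log series, top concentration up to 100 uM, 0.4% DMSO, sealed plates, 26 C; n = 6 embryos per concentration), rinsed at 5 dpf and scored at 6 dpf by two blinded observers for mortality, hatching and malformations. Endpoint scores are the % of living larvae affected (dead larvae excluded; […]). Curves were fitted with tcpl (cutoff 16%), and the BMC is the concentration at a benchmark response of 21.6%.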

[5] = test system: Danio rerio embryo/larva; assay: max % larvae with tail defects across tested concentrations; higher = more toxic; extreme values may be limits of the assay; conditions: exposure: 6-8 hpf to 5 dpf, scored at 6 dpf
[6] = test system: Danio rerio embryo/larva; assay: max % larvae generally abnormal across tested concentrations; higher = more toxic; extreme values may be limits of the assay; conditions: exposure: 6-8 hpf to 5 dpf, scored at 6 dpf
[7] = test system: Danio rerio embryo/larva; assay: max % larvae with blood pooling across tested concentrations; higher = more toxic; extreme values may be limits of the assay; conditions: exposure: 6-8 hpf to 5 dpf, scored at 6 dpf
[8] = test system: Danio rerio embryo/larva; assay: max % larvae with abnormal position across tested concentrations; higher = more toxic; extreme values may be limits of the assay; conditions: exposure: 6-8 hpf to 5 dpf, scored at 6 dpf
[9] = test system: Danio rerio embryo/larva; assay: max % larvae with pigmentation defects across tested concentrations; higher = more toxic; conditions: exposure: 6-8 hpf to 5 dpf, scored at 6 dpf
[10] = test system: Danio rerio embryo/larva; assay: max % larvae with edema across tested concentrations; higher = more toxic; extreme values may be limits of the assay; conditions: exposure: 6-8 hpf to 5 dpf, scored at 6 dpf
[11] = test system: Danio rerio embryo/larva; assay: max % larvae unhatched across tested concentrations; max tested concentration (log10 uM): 2; higher = more toxic; conditions: exposure: 6-8 hpf to 5 dpf, scored at 6 dpf
[12] = test system: Danio rerio embryo/larva; assay: BMC mortality; max tested concentration (log10 uM): 2; higher = less potent; conditions: exposure: 6-8 hpf to 5 dpf, scored at 6 dpf
Method: as §1

[13] = test system: Danio rerio embryo/larva; assay: max % larvae with any abnormality across tested concentrations; max tested concentration (log10 uM): 2; higher = more toxic; extreme values may be limits of the assay; conditions: exposure: 6-8 hpf to 5 dpf, scored at 6 dpf
[14] = test system: Danio rerio embryo/larva; assay: max % larvae dead across tested concentrations; max tested concentration (log10 uM): 2; higher = more toxic; extreme values may be limits of the assay; conditions: exposure: 6-8 hpf to 5 dpf, scored at 6 dpf
[15] = test system: Danio rerio embryo/larva; assay: BMC swim bladder non-inflation; higher = less potent; conditions: exposure: 6-8 hpf to 5 dpf, scored at 6 dpf
Method: as §1

[16] = test system: Danio rerio embryo/larva; assay: BMC any abnormality; max tested concentration (log10 uM): 2; higher = less potent; conditions: exposure: 6-8 hpf to 5 dpf, scored at 6 dpf
Method: as §1

[17] = test system: Danio rerio embryo/larva; assay: BMC craniofacial defects; higher = less potent; conditions: max tested concentration (log10 uM): 0.477121; exposure: 6-8 hpf to 5 dpf, scored at 6 dpf
Method: as §1

[18] = test system: Danio rerio embryo/larva; assay: BMC edema; higher = less potent; conditions: max tested concentration (log10 uM): 0.477121; exposure: 6-8 hpf to 5 dpf, scored at 6 dpf
Method: as §1

SMILES | max % larvae [1] [%] | max % larvae [2] [%] | max % larvae [3] [%] | BMC general abnormality [4] [µM] | max % larvae [5] [%] | max % larvae generally abnormal across tested concentrations [6] [%] | max % larvae [7] [%] | max % larvae [8] [%] | max % larvae [9] [%] | max % larvae [10] [%] | max % larvae unhatched across tested concentrations [11] [%] | BMC mortality [12] [µM] | max % larvae [13] [%] | max % larvae dead across tested concentrations [14] [%] | BMC swim bladder non-inflation ([15]; max tested concentration (log10 uM): 1.47712) [µM] | BMC any abnormality [16] [µM] | BMC craniofacial defects [17] [µM] | BMC swim bladder non-inflation ([15]; max tested concentration (log10 uM): 0.477121) [µM] | BMC edema [18] [µM]
O=C(O)C(F)(F)OC(F)(F)C(F)(F)OC(F)(F)C(F)(F)OC(F)(F)C(F)(F)C(F)(F)C(F)(F)F [Perfluoro-3,6,9-trioxatridecanoic acid] (max tested concentration (log10 uM): 1) | 0 | 100 | 0 | 1.51 | 0 | 50 | 16.7 | 50 | 0 | 50 | – | – | – | – | – | – | – | – | –
O=C(O)C(F)(F)OC(F)(F)C(F)(F)OC(F)(F)C(F)(F)C(F)(F)C(F)(F)F [Perfluoro-3,6-dioxadecanoic acid] | – | – | – | – | – | – | – | – | – | – | 0 | 75.3 | 91.7 | 66.7 | – | – | – | – | –
O=C(O)C(F)(F)C(F)(F)C(F)(F)C(F)(F)C(F)(F)C(F)(F)C(F)(F)C(F)(F)C(F)(F)F [Perfluorodecanoic acid] | – | – | – | – | – | – | – | – | – | – | 0 | 11.2 | 100 | 100 | 10.1 | 9.34 | – | – | –
O=C(O)C(F)(F)C(F)(F)C(F)(F)C(F)(F)C(F)(F)C(F)(F)C(F)(F)C(F)(F)C(F)(F)F [Perfluorodecanoic acid] (max tested concentration (log10 uM): 1.47712) | 0 | 100 | 0 | 11.2 | 0 | 50 | 0 | 0 | 0 | 50 | – | – | – | – | – | – | – | – | –
NS(=O)(=O)C(F)(F)C(F)(F)C(F)(F)C(F)(F)C(F)(F)C(F)(F)F [Perfluorohexanesulfonamide] (max tested concentration (log10 uM): 0.477121) | 70 | 100 | 5 | 1.66 | 10 | 85 | 0 | 30 | 0 | 85 | – | – | – | – | – | – | – | – | –
O=C(O)C(F)(F)C(F)(F)C(F)(F)C(F)(F)C(F)(F)C(F)(F)C(F)(F)C(F)(F)F [Perfluorononanoic acid] (max tested concentration (log10 uM): 2) | 100 | 100 | 25 | 28 | 50 | 75 | 16.7 | 37.5 | 0 | 75 | – | – | – | – | – | – | – | – | –
O=C(Cl)C(F)(F)C(F)(F)C(F)(F)C(F)(F)C(F)(F)C(F)(F)C(F)(F)C(F)(F)F [Perfluorononanoyl chloride] (max tested concentration (log10 uM): 1.47712) | 0 | 50 | 0 | 13.1 | 0 | 29.2 | 16.7 | 4.17 | 0 | 16.7 | – | – | – | – | – | – | – | – | –
N=C(N)C(F)(F)C(F)(F)C(F)(F)C(F)(F)C(F)(F)C(F)(F)C(F)(F)F [Perfluorooctanamidine] | – | – | – | – | – | – | – | – | – | – | 0 | 19.5 | 100 | 100 | – | 19.5 | – | – | –
NS(=O)(=O)C(F)(F)C(F)(F)C(F)(F)C(F)(F)C(F)(F)C(F)(F)C(F)(F)C(F)(F)F [Perfluorooctanesulfonamide] (max tested concentration (log10 uM): 0) | 8.33 | 50 | 0 | 0.381 | 0 | 41.7 | 16.7 | 8.33 | 0 | 37.5 | – | – | – | – | – | – | – | – | –
O=S(=O)(O)C(F)(F)C(F)(F)C(F)(F)C(F)(F)C(F)(F)C(F)(F)C(F)(F)C(F)(F)F [Perfluorooctanesulfonic acid] (max tested concentration (log10 uM): 1) | 50 | 62.5 | 6.25 | 7.82 | 18.8 | 75 | 0 | 25 | 0 | 43.8 | – | – | – | – | – | – | – | – | –
OC(C(F)(F)F)(C(F)(F)F)C(O)(C(F)(F)F)C(F)(F)F [Perfluoropinacol] | – | – | – | – | – | – | – | – | – | – | 0 | – | 100 | – | – | 1.94 | 2.47 | 2.28 | 2.52
OC(C(F)(F)F)(C(F)(F)F)C(O)(C(F)(F)F)C(F)(F)F [Perfluoropinacol] (max tested concentration (log10 uM): 0.477121) | 50 | 100 | 0 | 2.52 | 0 | 50 | 0 | 0 | 0 | 50 | – | – | – | – | – | – | – | – | –
O=C(O)C(F)(F)C(F)(F)C(F)(F)C(F)(F)C(F)(F)C(F)(F)C(F)(F)C(F)(F)C(F)(F)C(F)(F)F [Perfluoroundecanoic acid] | – | – | – | – | – | – | – | – | – | – | 0 | 14.5 | 100 | 100 | – | 2.94 | – | – | 2.74
O=C(O)C(F)(F)C(F)(F)C(F)(F)C(F)(F)C(F)(F)C(F)(F)C(F)(F)C(F)(F)C(F)(F)C(F)(F)F [Perfluoroundecanoic acid] (max tested concentration (log10 uM): 0.477121) | 16.7 | 16.7 | 8.33 | 2.74 | 12.5 | 25 | 8.33 | 8.33 | 0 | 25 | – | – | – | – | – | – | – | – | –
